Data set [1] has as its target T1, Aromatase (Homo sapiens, UniProt P11511).
T1 sequence (P11511 whole entry): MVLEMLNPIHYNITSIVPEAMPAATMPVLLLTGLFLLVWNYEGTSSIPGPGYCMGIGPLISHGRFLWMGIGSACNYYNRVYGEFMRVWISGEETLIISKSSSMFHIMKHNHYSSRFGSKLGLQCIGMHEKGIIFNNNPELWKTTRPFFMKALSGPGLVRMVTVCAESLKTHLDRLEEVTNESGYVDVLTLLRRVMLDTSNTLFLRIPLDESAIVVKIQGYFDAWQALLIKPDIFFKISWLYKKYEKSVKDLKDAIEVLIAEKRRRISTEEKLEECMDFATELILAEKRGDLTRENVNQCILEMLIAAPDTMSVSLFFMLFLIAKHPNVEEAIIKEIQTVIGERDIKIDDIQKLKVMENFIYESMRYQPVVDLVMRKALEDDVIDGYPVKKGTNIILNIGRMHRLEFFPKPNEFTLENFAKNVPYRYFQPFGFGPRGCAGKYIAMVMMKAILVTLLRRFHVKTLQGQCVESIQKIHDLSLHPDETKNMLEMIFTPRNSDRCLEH
Put plainly: Maximum absorbance for formation of reversible-enzyme-ligand complexes with human placental aromatase (PL1).

Data set [2] deals with T1, Aromatase. The experiment in a line: Binding affinity constant for formation of reversible enzyme-ligand complex with human placental aromatase (PL1). Conditions: read-out: Ks.
Data set [3] deals with T1, Aromatase. The experiment in a line: Binding affinity(KI) for formation of reversible enzyme-ligand complex with human placental aromatase (PL2).
Data set [4] deals with T1, Aromatase. The experiment in a line: Catalytic constant (Kcat) for reversible enzyme-ligand complex formation with human placental aromatase (PL2).
The target in data set [5] is T1, Aromatase. The experiment in a line: Dithiothreitol ([…]) reactivation of human placental aromatase following 1.0 uM inactivation for 10 minutes. Conditions: read-out: Activity remaning.
In data set [6] the target is T1, Aromatase. The experiment in a line: Dithiothreitol ([…]) reactivation of human placental aromatase following 1.0 uM inactivation for 5 minutes. Conditions: read-out: Activity remaning.
In data set [7] the target is T1, Aromatase. Put plainly: Binding affinity for formation of reversible enzyme-ligand complexes with human placental aromatase (PL2).

As for `C[C@]12CCC(=O)C=C1CC[C@@H]1[C@@H]2CC[C@]2(C)C(=O)CC[C@@H]12` [ANDROSTENEDIONE], the Activity on Aromatase [1] is reported as 0.177 Amax nM-1. Moreover, on Aromatase [2], the Kd stood at 0.105 µM.
What is called Ki is the dissociation constant of the complex between target and ligand, obtained from inhibition or displacement. Turning to `C[C@]12CCC3C(CCC4=CC(=O)CC[C@@]43S)C1CC[C@@H]2O` (stereo not given in full), on Aromatase [1], the Activity is recorded as 0.167 Amax nM-1. Besides, at Aromatase [3], the Ki came to 0.1 µM. The Kd on Aromatase [2] is 0.785 µM. This compound displayed a k cat on Aromatase [4] of 0.004.
For `C[C@]12C[C@@H](S)C(=O)C=C1CCC1C2CC[C@]2(C)C(=O)CCC12.OC(CS)C(O)CS` (stereo not given in full), the activity at 1 µM on Aromatase [5] was found to be 74%.
In the case of `C[C@]12CCC3C(CCC4=CC(=O)CC[C@@]43S)C1CCC2=O.OC(CS)C(O)CS` (stereo not given in full), on Aromatase [6], the activity at 1 µM was determined as 48%.
Turning to `C[C@]12CCC3C(CCC4=CC(=O)CC[C@@]43CS)C1CCC2=O` (stereo not given in full), the Activity at Aromatase [1] is 0.179 Amax nM-1. This compound showed a Ki on Aromatase [7] of 0.047 µM. Also, the activity at 1 µM on Aromatase [6] was found to be 60%. At Aromatase [4], this compound had a k cat of 0.0025.
`C#CC[C@]12CCC(=O)C=C1CCC1C2CC[C@]2(C)C(=O)CCC12.OC(CS)C(O)CS` (stereo not given in full): on Aromatase [5], the activity at 1 µM came out at 63%.
`CC12CCC3C(CC=C4CC(=O)CCC43CO)C1CCC2=O` (stereo not given): the Activity at Aromatase [1] is 0.125 Amax nM-1. For the same compound, the Kd on Aromatase [2] was 0.368 µM.
Take `C[C@]12C[C@@H](S)C(=O)C=C1CCC1C2CC[C@]2(C)C(=O)CCC12` (stereo not given in full): the Activity at Aromatase [1] was 0.169 Amax nM-1. The compound also returned a Ki on Aromatase [3] of 3.1 µM. Besides, the activity at 1 µM on Aromatase [5] is 75%. Further, the Kd on Aromatase [2] was 0.602 µM. This compound gave a k cat on Aromatase [4] of 0.002.
For the compound `C[C@]12CCC(=O)C(O)=C1CCC1C2CC[C@]2(C)C(=O)CCC12.OC(CS)C(O)CS` (stereo not given in full), the activity at 1 µM at Aromatase [6] worked out at 41%.
On to `C[C@]12CC[C@H]3[C@@H](CCC4=CC(=O)CC[C@@]43C)[C@@H]1CC[C@@H]2O` [TESTOSTERONE], for which, at Aromatase [1], the Activity was 0.166 Amax nM-1.
For `C[C@]12CCC3C(CCC4=CC(=O)CC[C@@]43CS)C1CCC2=O.OC(CS)C(O)CS` (stereo not given in full), the activity at 1 µM at Aromatase [6] is 59%.
For `C[C@]12CCC3C(CCC4=CC(=O)CC[C@@]43S)C1CCC2=O` (stereo not given in full), the Activity on Aromatase [1] was 0.187 Amax nM-1. Moreover, the Ki on Aromatase [3] stood at 0.028 µM. The Kd at Aromatase [2] was found to be 0.144 µM. The activity at 1 µM at Aromatase [6] is 50%. The same compound came in with a k cat at Aromatase [4] of 0.0043.
Consider `OC(CS)C(O)CS` (stereo not drawn) [DL-DITHIOTHREITOL], for which the values for the activity at 1 µM at Aromatase [5] and at Aromatase [6] were 84% and 97%, respectively.
For the compound `C[C@]12CCC(=O)C(O)=C1CC[C@@H]1[C@@H]2CC[C@]2(C)C(=O)CC[C@@H]12` [FORMESTANE], the Activity at Aromatase [1] is on record as 0.162 Amax nM-1. The Ki on Aromatase [3] is 0.542 µM. In addition, at Aromatase [2], the Kd was found to be 0.324 µM. Also, the activity at 1 µM at Aromatase [6] turned out to be 43%. The k cat on Aromatase [4] was 0.008 *10e-3.
As to `C#CC[C@]12CCC(=O)C=C1CC[C@@H]1[C@@H]2CC[C@]2(C)C(=O)CC[C@@H]12` [PLOMESTANE], the Activity at Aromatase [1] is reported as 0.191 Amax nM-1. Moreover, affinity on Aromatase [3] was put at a Ki of 0.0062 µM. Further, the activity at 1 µM on Aromatase [5] was determined as 65%. Moreover, the Kd on Aromatase [2] is 0.213 µM. This compound also displayed a k cat on Aromatase [4] of 0.0007.

The values are drawn from ChEMBL document CHEMBL1124325, “Interactions of thiol-containing androgens with human placental aromatase” (J Med Chem, 1989).
